For 84 compounds, viability results are on record in publication PMC12040169 (PLOS Biology, 2025).

This series can be described thus: in vitro. To be noted: human, hela cells, % viability.
A word on the viability: it is a read-out of living cells in per cent, often relative to untreated cells. For the compound `Cc1nc(C2CCN(C(=O)c3cccnc3)CC2)c2sccn12` [CBK282233], the viability at 28.5 h, 10 µM came to 106%.

In the case of `CCn1nccc1C(=O)N1CCC(c2cc3c(C)cccc3cn2)CC1` [CBK282234], the viability at 28.5 h, 10 µM worked out at 92.4%. On to `Cc1nc(C2CCCN(C(=O)c3cscn3)C2)c2sccn12` (stereo not drawn) [CBK282236], for which the viability at 28.5 h, 10 µM was 88.2%. Turning to `CCCC(=O)N1CCC(c2cc3n(n2)[C@@H](C(F)(F)F)C[C@@H](C)N3)C1` (stereo partly drawn) [CBK282237], the viability at 28.5 h, 10 µM was determined as 99.2%. `Cc1nc(C2CCN(C(=O)CCc3ccno3)CC2)c2sccn12` [CBK282239]: the viability at 28.5 h, 10 µM came out at 93.1%. As for `Cc1nc(C2CCN(C(=O)CCC3CCCO3)CC2)c2sccn12` (stereo not drawn) [CBK282240], the viability at 28.5 h, 10 µM turned out to be 106%. For `Cc1nc(C2CCCN(C(=O)C3CCCO3)C2)c2sccn12` (stereo not drawn) [CBK282241], the viability at 28.5 h, 10 µM was found to be 106%. Turning to `Cc1ccc(OC(C)C(=O)N2CCCc3c(cnn3C)C2)cc1` (stereo not drawn) [CBK282242], the viability at 28.5 h, 10 µM was found to be 98.2%. The figure for `CC(=O)N[C@H](C)Cn1nnc2ccccc21` [CBK282246] is 88%; for `O=C(NCCc1ccco1)c1ncoc1-c1ccc(F)cc1` [CBK282247] it is 104%; for `CN(CCCNC(=O)c1ncoc1-c1cccs1)c1ccccc1` [CBK282248] it is 103%. On to `Cc1noc(C)c1C(=O)N1CCC[C@@H](C(=O)c2ccccc2F)C1` [CBK282249], for which the viability at 28.5 h, 10 µM stood at 90.5%. With `O=C(NC1CCCc2c1cnn2Cc1ccccc1)c1ccncc1` (stereo not drawn) [CBK282250], the viability at 28.5 h, 10 µM is 93.8%. For the compound `Cn1ncc2c1CCCN(C(=O)Cc1ccc3c(c1)CCCO3)C2` [CBK282253], the viability at 28.5 h, 10 µM amounted to 87.8%. Turning to `CC(=O)N1C[C@H]2CCCN(S(=O)(=O)c3ccc4c(c3)CCC4)[C@H]2C1` [CBK282254], the viability at 28.5 h, 10 µM came to 87.5%. Then `O=C(C1CC1)N1C[C@H]2CCCN(S(=O)(=O)c3cccs3)[C@H]2C1` [CBK282255], with 105%. For the compound `O=C(c1cccs1)N1CCOC(Cn2ccnc2)C1` (stereo not drawn) [CBK282256], the viability at 28.5 h, 10 µM was 103%.

For `CCC(C)C(=O)N1CCC(c2nnc3n2CCCCC3)CC1` (stereo not drawn) [CBK282260], the viability at 28.5 h, 10 µM turned out to be 85.4%. The figure for `Cn1nccc1CN(Cc1ccc(F)cc1)Cc1cccnc1` [CBK282261] is 101%.

With `CC(Cn1cncn1)C(=O)N1CCCCC1CCc1ccccc1` (stereo not drawn) [CBK282265], the viability at 28.5 h, 10 µM was 109%.

With `CCOC(=O)Cn1c(-c2cccs2)cc2cccnc21` [CBK282267], the viability at 28.5 h, 10 µM is 95.2%. Turning to `COC(=O)Cn1c(-c2ccc(OC)cc2)cc2cccnc21` [CBK282268], the viability at 28.5 h, 10 µM came out at 82.7%. On to `Fc1ccc(CN2CC3CCCC(C2)C3N2CCOCC2)cc1F` (stereo not drawn) [CBK282270], for which the viability at 28.5 h, 10 µM came to 95.8%. Regarding `Cn1ccnc1C1(O)CCN(C(=O)NC2CCCCC2)CC1` [CBK282275], the viability at 28.5 h, 10 µM turned out to be 91.8%. With `Cn1ccnc1C1(O)CCN(C(=O)NCc2ccccc2)CC1` [CBK282276], the viability at 28.5 h, 10 µM amounted to 94.9%. Take `Cn1ccnc1C1(O)CCN(C(=O)Nc2ccccc2F)CC1` [CBK282280]: the viability at 28.5 h, 10 µM came to 112%.

Take `O=C(NCc1ccccc1)N1CCC(n2cnc3cccnc32)CC1` [CBK282281]: the viability at 28.5 h, 10 µM was 100%. The figure for `c1cnc2[nH]c([C@H]3CCCO3)c(CN3CCCCC3)c2c1` [CBK282284] is 87.7%; for `O=C(Cn1c([C@@H]2CCCO2)cc2cccnc21)N1CCCCC1` [CBK282286] it is 90.3%; for `c1cnc2c(c1)cc([C@H]1CCCO1)n2CCN1CCCC1` [CBK282289] it is 91.9%. `CC(=O)Nc1ccc(CCC2(NC(=O)C3CC3)CCCCC2)cn1` [CBK282290]: the viability at 28.5 h, 10 µM amounted to 87.4%.

Turning to `Cc1nc2cccnc2n1C1CCN(C(=O)NCc2ccccc2)CC1` [CBK282291], the viability at 28.5 h, 10 µM is 87.5%. Regarding `Cn1nc(-c2ccc(F)cc2)n(-c2ccncc2)c1=O` [CBK282294], the viability at 28.5 h, 10 µM stood at 96.5%. As to `COc1ccc([C@@H](O)[C@H]2CCCNC2)cc1` [CBK282298], the viability at 28.5 h, 10 µM came out at 86.3%.

Consider `C[C@]12CN(Cc3ccccc3)C[C@H]1NC(=O)c1ccccc1C2O` (stereo partly drawn) [CBK282302], for which the viability at 28.5 h, 10 µM is 112%.

As for `COCCCNC(=O)Cn1ccc2ccnc(-c3cccs3)c21` [CBK282303], the viability at 28.5 h, 10 µM turned out to be 109%. The figure for `CCC(=O)N1CCC[C@@H]1Cn1nc(-c2cccs2)ccc1=O` [CBK282304] is 84.8%; for `C[C@@H](Cn1nnc2ccccc21)NC(=O)Cc1cccc(F)c1` [CBK282306] it is 90.8%. Take `Cc1[nH]ncc1C(=O)N1CCn2cc(C(F)(F)F)nc2C1` [CBK282307]: the viability at 28.5 h, 10 µM was 87.7%.

In the case of `C[C@@H](Cn1nnc2ccccc21)NC(=O)Cc1cccs1` [CBK282312], the viability at 28.5 h, 10 µM was found to be 92.8%. Then `O=C1CCCN1CC(=O)N1CCCC1c1nc2ccccc2[nH]1` (stereo not drawn) [CBK282315], with 86.3%. Consider `Cc1ccc(CCC(=O)N2CCCCC2c2nc3ccccc3[nH]2)o1` (stereo not drawn) [CBK282316], for which the viability at 28.5 h, 10 µM is 85.7%. Then `O=c1[nH]c(-c2ccccc2)nc2c1CN(Cc1ccc(F)cc1)CC2` [CBK282329], with 93.3%. Consider `O=c1[nH]c(-c2ccccc2)nc2c1CN(Cc1cccs1)CC2` [CBK282330], for which the viability at 28.5 h, 10 µM was found to be 87.1%. As for `Cn1c(=O)n(Cc2ccc(Cl)cc2)c2cccnc21` [CBK282333], the viability at 28.5 h, 10 µM was determined as 101%.

`Cc1noc(C)c1C(=O)N1CCC(c2ccncc2)CC1` [CBK282334]: the viability at 28.5 h, 10 µM was 110%. Take `CC(C)(C)C(=O)N1CCC(n2nc(-c3ccco3)ccc2=O)CC1` [CBK282341]: the viability at 28.5 h, 10 µM came to 99.3%. In the case of `CC(C)CC(=O)NCCn1nc(-c2cccs2)oc1=O` [CBK282342], the viability at 28.5 h, 10 µM was found to be 114%.

Consider `O=C(NCCn1nc(-c2cccs2)oc1=O)C1CCCCC1` [CBK282343], for which the viability at 28.5 h, 10 µM came out at 105%.

Consider `O=C(Cc1cccc(O)c1)N1CCCC1c1nc2ccccc2[nH]1` (stereo not drawn) [CBK282346], for which the viability at 28.5 h, 10 µM is 91.9%.

As to `CC1CCc2c(sc3ncn(C4CCNCC4)c(=O)c23)C1` (stereo not drawn) [CBK282349], the viability at 28.5 h, 10 µM was determined as 91.4%. With `O=C(c1ccco1)N1CCC(n2nc(C3CC3)ccc2=O)CC1` [CBK282350], the viability at 28.5 h, 10 µM amounted to 109%. Consider `CCOCCCNC(=O)c1ncoc1-c1ccc(F)cc1` [CBK282353], for which the viability at 28.5 h, 10 µM stood at 92.6%.

For the compound `Cc1cc(C)n(CCNC(=O)c2ncoc2-c2ccc(F)cc2)n1` [CBK282356], the viability at 28.5 h, 10 µM came to 83.2%. For `Cc1cc(C)n(CCCNC(=O)c2ncoc2-c2ccc(F)cc2)n1` [CBK282357], the viability at 28.5 h, 10 µM stood at 91.3%. Then `O=C(c1ncoc1-c1ccc(F)cc1)N1CCOCC1` [CBK282362], with 87.1%; and `Fc1cccc(-c2nc3cnccn3c2NCc2cccs2)c1` [CBK282363], with 97.5%; and `O=C1NC2=C(C(=O)N(CC3CCCO3)C2)C(c2cccc(F)c2)N1` (stereo not drawn) [CBK282364], with 86.1%. With `Cc1cc2nnn(C[C@@H](C)NC(=O)c3ccco3)c2cc1C` [CBK282366], the viability at 28.5 h, 10 µM was determined as 100%. The figure for `CC(=O)N1CCC(n2c(C3CC3)nc3sc(C)c(C)c3c2=O)CC1` [CBK282369] is 85.2%; for `CC(C)c1ccc(C(=O)N2CCC(n3cnc4cccnc43)CC2)cc1` [CBK282370] it is 82.3%.

In the case of `CC(C)NC(=O)C1CCCN(c2nc3ccccc3n2C)C1` (stereo not drawn) [CBK282373], the viability at 28.5 h, 10 µM is 109%. `O=C(C1CCCC1)N1CCCC1c1nc2ccccc2[nH]1` (stereo not drawn) [CBK282378]: the viability at 28.5 h, 10 µM stood at 88.5%. Consider `O=C(c1ncoc1-c1ccc(F)cc1)N1CCSCC1` [CBK282380], for which the viability at 28.5 h, 10 µM is 105%. `Cc1cc2ccccc2n2c(=O)n(Cc3cscn3)nc12` [CBK282381]: the viability at 28.5 h, 10 µM was 102%. `C#CCn1cc(CN2CCc3c(nc(C)[nH]c3=O)C2)c2ccccc21` [CBK282382]: the viability at 28.5 h, 10 µM amounted to 102%.

Turning to `Cc1nc2c(c(=O)[nH]1)CCN(CCC(C)c1ccccc1)C2` (stereo not drawn) [CBK282387], the viability at 28.5 h, 10 µM is 81%. Turning to `CC1CCCC(C)N1C(=O)Cn1c(=O)n(C)c2ncccc21` (stereo not drawn) [CBK282389], the viability at 28.5 h, 10 µM turned out to be 107%. As for `CCN(Cc1ccco1)C(=O)Cn1c(=O)n(C)c2ncccc21` [CBK282390], the viability at 28.5 h, 10 µM was determined as 99.3%.

Take `COc1cccc(Cn2c(=O)n(C)c3ncccc32)c1` [CBK282391]: the viability at 28.5 h, 10 µM came to 81.1%. The figure for `Cc1cc2c(o1)c1cnn(CC(=O)N(C(C)C)C(C)C)c(=O)c1n2C` [CBK282392] is 83.2%; for `COc1ccccc1CCNC(=O)c1ncoc1-c1cccs1` [CBK282394] it is 76.4%; for `O=C(c1ncoc1-c1ccc(F)cc1)N1CCN2CCCCC2C1` (stereo not drawn) [CBK282400] it is 96.2%. Then `CC(NC(=O)c1ncoc1-c1ccccc1F)c1ccccn1` (stereo not drawn) [CBK282402], with 91.4%; and `O=C(NCc1cccnc1)c1ncoc1-c1cccc(Cl)c1` [CBK282403], with 85.4%; and `CC(=O)N1CCC(Cn2nc(-c3ccccc3)ccc2=O)CC1` [CBK282405], with 109%. Turning to `CC(=O)N1CCC(Cn2nc(-c3ccc(F)cc3)ccc2=O)CC1` [CBK282406], the viability at 28.5 h, 10 µM amounted to 101%. `Cc1ccccc1-c1ocnc1C(=O)NCc1ccco1` [CBK282408]: the viability at 28.5 h, 10 µM is 84.5%. `O=C(c1ccc(F)cc1)[C@H]1CCCN(C(=O)c2cc(C3CC3)n[nH]2)C1` [CBK282410]: the viability at 28.5 h, 10 µM worked out at 99.6%. Regarding `O=C(c1cccs1)[C@H]1CCCN(C(=O)c2cc(C3CC3)n[nH]2)C1` [CBK282411], the viability at 28.5 h, 10 µM came out at 85.3%. For `Cn1ccc(C(=O)N2CCC[C@H](C(=O)c3cccs3)C2)n1` [CBK282412], the viability at 28.5 h, 10 µM was 98%.

In the case of `Cc1sc2nc(C)n(C3CCN(C(=O)C(C)C)CC3)c(=O)c2c1C` [CBK282414], the viability at 28.5 h, 10 µM was 88.7%. Then `Cc1nc2c(c(=O)[nH]1)CN(Cc1ccc(Cl)cc1)CC2` [CBK282415], with 84.5%; and `O=C(Nc1ccccc1-n1ccnc1)c1ncoc1-c1ccc(F)cc1` [CBK282417], with 94.1%.
